Source: patent publication US20230357241A1, “1H-PYRROLO[2,3-C]PYRIDINE COMPOUNDS AND APPLICATION THEREOF” (MEDSHINE DISCOVERY INC., priority 2020, published 2023)
Where a name gives a salt, the structure may show the parent alone. Blank lines part the entries; values can stand above or below the compound they belong to.

Columns and labels:
CSF-1R = CSF-1R (Homo sapiens (Human), UniProt P07333); assay: In vitro enzymatic inhibitory activity, CSF-1R kinase (33P-ATP filter-binding); assay type: biochemical; conditions: CSF-1R 2.5 nM, 2 h room temperature
Sequence of CSF-1R (P07333 20-972): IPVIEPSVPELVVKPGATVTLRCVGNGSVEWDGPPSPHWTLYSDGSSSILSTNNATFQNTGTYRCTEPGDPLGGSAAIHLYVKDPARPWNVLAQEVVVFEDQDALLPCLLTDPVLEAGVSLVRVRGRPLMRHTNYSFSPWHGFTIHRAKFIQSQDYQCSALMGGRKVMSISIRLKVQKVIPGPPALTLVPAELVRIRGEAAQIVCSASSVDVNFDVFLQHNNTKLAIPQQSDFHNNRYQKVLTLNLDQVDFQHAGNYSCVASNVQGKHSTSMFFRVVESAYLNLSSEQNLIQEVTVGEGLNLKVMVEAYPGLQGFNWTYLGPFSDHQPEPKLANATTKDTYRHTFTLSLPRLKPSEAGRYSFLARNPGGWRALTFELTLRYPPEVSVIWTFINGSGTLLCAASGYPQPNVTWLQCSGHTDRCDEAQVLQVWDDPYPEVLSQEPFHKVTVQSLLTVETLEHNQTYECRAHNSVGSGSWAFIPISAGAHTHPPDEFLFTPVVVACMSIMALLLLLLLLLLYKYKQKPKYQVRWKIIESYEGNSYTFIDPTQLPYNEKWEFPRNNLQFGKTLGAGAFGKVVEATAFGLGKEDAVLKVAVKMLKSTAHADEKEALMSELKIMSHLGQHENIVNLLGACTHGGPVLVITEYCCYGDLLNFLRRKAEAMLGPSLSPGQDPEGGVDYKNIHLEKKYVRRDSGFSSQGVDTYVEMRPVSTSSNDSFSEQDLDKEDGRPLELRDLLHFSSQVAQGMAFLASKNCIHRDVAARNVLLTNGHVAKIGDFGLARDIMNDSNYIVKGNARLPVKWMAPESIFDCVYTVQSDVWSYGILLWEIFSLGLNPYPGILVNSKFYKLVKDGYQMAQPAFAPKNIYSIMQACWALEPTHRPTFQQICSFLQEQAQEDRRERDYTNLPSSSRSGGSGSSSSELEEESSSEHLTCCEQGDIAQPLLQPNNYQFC
Method: Basic reaction buffer: 20 mM hydroxyethylpiperazine ethane sulfonic acid (pH 7.5), 10 mM magnesium chloride, 1 mM EGTA, 0.02% Brij35, 0.02 mg/mL bovine serum albumin, 0.1 mM
Na3VO4, 2 mM DTT, 1% DMSO
Necessary cofactors were separately added to the CSF-1R kinase reaction.
The test compounds were prepared into solutions of specified concentrations in 100% DMSO, and the solutions were serially diluted in DMSO using the Integra Viaflo Assist.
1. A fresh medium preparation reaction buffer was prepared;
2. All necessary cofactors were added to the reaction buffer described above;
3. The kinase was added into the medium solution and the mixture was shaked gently;
4. Solutions of the compounds in DMSO were added to the kinase reaction mixture using an acoustic technique (Echo550; in nanoliter range), and the system was incubated at room temperature for 20 min;
5. ^33P-ATP (specific activity: 10 μCi/μL) was added to the reaction mixture to initiate the reaction;
6. The mixture was incubated for 2 h at room temperature;
7. The kinase activity was detected by a filter-binding method;
8. The kinase activity IC50 values and the curves were obtained by comparison with the other kinases and the vehicle (DMSO) group using Prism (GraphPad software).

CYP2C9 = CYP2C9 (Homo sapiens (Human), UniProt P11712); assay: Cytochrome enzyme inhibition study, CYP2C9; assay type: in vitro ADME; conditions: human liver microsomes, mixed probe substrate; read-out: CYP inhibition (IC50, μM) 2C9
Sequence of CYP2C9 (P11712 whole entry): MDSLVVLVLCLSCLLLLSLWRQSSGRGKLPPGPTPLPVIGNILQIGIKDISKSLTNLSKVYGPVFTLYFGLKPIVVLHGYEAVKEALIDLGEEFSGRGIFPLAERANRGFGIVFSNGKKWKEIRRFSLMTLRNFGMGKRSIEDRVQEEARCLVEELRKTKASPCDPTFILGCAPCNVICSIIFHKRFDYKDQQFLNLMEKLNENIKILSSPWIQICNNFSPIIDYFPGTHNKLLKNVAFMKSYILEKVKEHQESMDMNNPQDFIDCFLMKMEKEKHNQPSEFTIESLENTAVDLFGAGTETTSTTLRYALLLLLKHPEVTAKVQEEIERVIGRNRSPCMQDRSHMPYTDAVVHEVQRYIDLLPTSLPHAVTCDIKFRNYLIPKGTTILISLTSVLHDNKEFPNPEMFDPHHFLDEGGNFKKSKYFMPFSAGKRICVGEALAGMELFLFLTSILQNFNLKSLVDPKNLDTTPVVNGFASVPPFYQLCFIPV
Method: (§1) A mixed probe substrate of CYP isoenzymes were used to evaluate the inhibitory effect of test compounds on human liver microsomal cytochrome P450 isoenzymes (CYP1A2, CYP2C9, CYP2C19, CYP2D6 and CYP3A4). The test compounds were prepared into 10 mM stock solutions with DMSO. A 178 μL solution of human liver microsome and substrate mixture was added to the non-inhibitor control (NIC) and test compound wells of the reaction plate and the reaction was then placed on ice. 2 μL of blank solvent and test compound working solution were taken from the dilution plate, and added to the reaction plate (at final concentrations of 0.05-50 μM). The reaction plate was prewarmed in a 37±0.2° C. water bath for 10 min. 20 μL of the cofactor solution was taken by a liquid treatment workstation and added into the reaction plate to initiate the reaction. After 10 min, 400 μL of terminating solution was added to the reaction plate to terminate the reaction, and the reaction plate was incubated on ice for 5 min. […] The peak areas of the substrate and the product were detected by liquid chromatography-mass spectrometer (LC/MS/MS). […] The peak area ratio of the metabolite generated by the probe substrate to the internal standard was determined by liquid chromatography-mass spectrometer (LC-MS/MS). […] IC50 values were calculated by a three-parameter or four-parameter sigmoidal logarithmic equation. […]

CYP3A4 = CYP3A4 (Homo sapiens (Human), UniProt P08684); assay: Cytochrome enzyme inhibition study, CYP3A4; assay type: in vitro ADME; conditions: human liver microsomes, mixed probe substrate; read-out: CYP inhibition (IC50, μM) 3A4
Sequence of CYP3A4 (P08684 whole entry): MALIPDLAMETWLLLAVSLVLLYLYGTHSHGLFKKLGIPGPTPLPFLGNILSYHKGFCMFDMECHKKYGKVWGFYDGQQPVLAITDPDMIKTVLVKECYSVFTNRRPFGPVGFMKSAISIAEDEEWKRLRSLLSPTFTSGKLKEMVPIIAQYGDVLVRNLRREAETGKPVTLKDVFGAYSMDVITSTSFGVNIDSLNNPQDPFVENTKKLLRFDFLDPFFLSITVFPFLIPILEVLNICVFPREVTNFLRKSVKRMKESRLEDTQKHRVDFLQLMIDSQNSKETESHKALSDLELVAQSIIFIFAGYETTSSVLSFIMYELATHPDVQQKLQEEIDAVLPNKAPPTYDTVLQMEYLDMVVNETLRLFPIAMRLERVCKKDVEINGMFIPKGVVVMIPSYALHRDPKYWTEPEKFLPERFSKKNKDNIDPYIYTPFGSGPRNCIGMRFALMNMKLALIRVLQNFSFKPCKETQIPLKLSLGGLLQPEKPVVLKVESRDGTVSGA
Method: as §1

CYP2C19 = CYP2C19 (Homo sapiens (Human), UniProt P33261); assay: Cytochrome enzyme inhibition study, CYP2C19; assay type: in vitro ADME; conditions: human liver microsomes, mixed probe substrate; read-out: CYP inhibition (IC50, μM) 2C19
Sequence of CYP2C19 (P33261 whole entry): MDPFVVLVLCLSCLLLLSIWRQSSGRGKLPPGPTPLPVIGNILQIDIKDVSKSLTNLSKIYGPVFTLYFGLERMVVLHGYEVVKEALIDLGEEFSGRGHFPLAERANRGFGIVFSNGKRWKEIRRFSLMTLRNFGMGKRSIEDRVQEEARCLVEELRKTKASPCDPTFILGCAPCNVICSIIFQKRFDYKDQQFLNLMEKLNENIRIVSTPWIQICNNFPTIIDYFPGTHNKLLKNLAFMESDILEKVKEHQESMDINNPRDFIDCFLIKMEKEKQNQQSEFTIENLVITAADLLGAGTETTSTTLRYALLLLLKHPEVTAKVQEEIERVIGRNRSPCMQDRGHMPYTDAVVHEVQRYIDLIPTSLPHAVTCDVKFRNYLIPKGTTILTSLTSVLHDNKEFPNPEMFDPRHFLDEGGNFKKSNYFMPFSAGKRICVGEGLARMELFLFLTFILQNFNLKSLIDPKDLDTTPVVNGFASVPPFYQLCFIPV
Method: as §1

CYP1A2 = CYP1A2 (Homo sapiens (Human), UniProt P05177); assay: Cytochrome enzyme inhibition study, CYP1A2; assay type: in vitro ADME; conditions: human liver microsomes, mixed probe substrate; read-out: CYP inhibition (IC50, μM) 1A2
Sequence of CYP1A2 (P05177 whole entry): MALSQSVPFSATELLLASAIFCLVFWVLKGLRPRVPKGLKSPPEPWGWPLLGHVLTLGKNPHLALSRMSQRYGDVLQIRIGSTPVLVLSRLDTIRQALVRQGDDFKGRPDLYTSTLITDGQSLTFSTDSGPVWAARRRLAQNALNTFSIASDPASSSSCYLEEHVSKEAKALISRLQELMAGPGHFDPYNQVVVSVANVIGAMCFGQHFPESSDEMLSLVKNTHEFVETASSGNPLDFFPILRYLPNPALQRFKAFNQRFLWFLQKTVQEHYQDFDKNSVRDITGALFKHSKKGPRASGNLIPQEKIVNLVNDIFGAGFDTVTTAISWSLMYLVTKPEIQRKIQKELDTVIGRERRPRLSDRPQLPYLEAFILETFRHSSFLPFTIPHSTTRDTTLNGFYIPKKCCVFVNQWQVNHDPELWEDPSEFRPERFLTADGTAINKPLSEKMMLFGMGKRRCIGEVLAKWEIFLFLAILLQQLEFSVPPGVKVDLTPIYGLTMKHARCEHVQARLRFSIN
Method: as §1

CYP2D6 = CYP2D6 (Homo sapiens (Human), UniProt P10635); assay: Cytochrome enzyme inhibition study, CYP2D6; assay type: in vitro ADME; conditions: human liver microsomes, mixed probe substrate; read-out: CYP inhibition (IC50, μM) 2D6
Sequence of CYP2D6 (P10635 whole entry): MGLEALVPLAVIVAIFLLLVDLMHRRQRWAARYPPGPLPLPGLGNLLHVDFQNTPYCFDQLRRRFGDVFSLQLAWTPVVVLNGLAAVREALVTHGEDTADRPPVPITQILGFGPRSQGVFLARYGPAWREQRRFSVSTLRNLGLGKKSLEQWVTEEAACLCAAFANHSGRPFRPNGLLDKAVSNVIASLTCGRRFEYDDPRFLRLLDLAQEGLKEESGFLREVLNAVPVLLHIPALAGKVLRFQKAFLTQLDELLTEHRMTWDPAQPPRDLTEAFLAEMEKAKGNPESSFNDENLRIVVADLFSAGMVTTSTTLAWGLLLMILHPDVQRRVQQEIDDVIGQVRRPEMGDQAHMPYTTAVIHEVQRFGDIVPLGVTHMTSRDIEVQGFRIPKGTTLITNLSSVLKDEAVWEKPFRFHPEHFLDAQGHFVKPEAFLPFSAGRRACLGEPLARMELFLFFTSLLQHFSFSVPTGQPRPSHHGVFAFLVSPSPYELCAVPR
Method: as §1

[1] = Pharmacokinetic study in mice; assay type: in vivo, male C57BL/6J mice; conditions: male, C57BL/6J, plasma, mouse
Source text: (§2) This study was intended to explore the pharmacokinetics of the test compound in the plasma of male C57BL/6J mice and SD rats after intravenous and oral administrations.
(§3) The animals were randomized into two groups of 3 male animals. The compounds were formulated as designated (vehicle: 0.5% MC), i.e., clear solutions for intravenous injection and clear or homogeneous suspensions for oral formulations.
(§4) Animal whole blood samples were collected by jugular vein puncture or from saphenous vein at 5 min, 15 min and 30 min and 1 h, 2 h, 4 h, 6 h and 8 h post-dose. The whole blood samples were added to centrifuge tubes containing anticoagulant and centrifuged at 4° C., 3000 g for 15 min. The plasma supernatant was taken and quickly frozen on dry ice and stored in a freezer at −70±10° C. before LC-MS/MS analysis.
(§5) Plasma drug concentration data for compounds were processed in a non-compartmental model using WinNonlin™ Version 6.3.0 (Pharsight, Mountain View, CA) pharmacokinetic software. Peak concentration (Cmax) and time to peak (Tmax) and time of the last quantifiable concentration were directly obtained from the plasma concentration-time curve.
(§6) The following pharmacokinetic parameters were calculated using the log-linear trapezoidal method: plasma clearance (CL), volume of distribution (Vd), elimination phase half-life (T1/2), mean retention time of the compound from point 0 to the last time point (MRT0-last), mean retention time of the compound from point 0 to infinite (MRT0-inf), area under the time-plasma concentration curve from point 0 to the last time point (AUC0-last), area under the time-plasma concentration curve from point 0 to infinite (AUC0-inf) and bioavailability (F).

[2] = Pharmacokinetic study in rats; assay type: in vivo; conditions: male, SD, plasma, rat
Source text: as §2, §3, §4, §5, §6

MDR1-MDCK = assay: Permeability study (MDR1-MDCK), bi-directional transport; assay type: in vitro ADME; conditions: conclusion in words
[3] = system: Ba/F3-TEL-CSF1R cell in situ graft tumor; assay: In vivo pharmacodynamic study, Ba/F3-TEL-CSF1R cell in situ graft tumor model (splenomegaly); design: species or system nu/nu mice; conditions: for efficacy in TEL-CSF1R-BaF3 cell splenomegaly assay: p.o., QD
Method: The in vivo efficacy of compound 1 hydrochloride on Ba/F3-TEL-CSF1R cell in situ graft tumor model was evaluated.
• Cell culture: Ba/F3-TEL-CSF1R cells were cultured in 1640 medium (Biological Industries)+10% fetal bovine serum (BI)+1% dual antibiotic solution (Penicilin Streptomycin Solution, Coring, USA) at 37° C. at 5% CO2 and passaged twice a week. When the saturation reached 80%-90% and met the requirement, the cells were collected, counted and grafted. • Animals: 28 nu/nu mice, female, aged 6-8 weeks, 18-22 g, supplied by Beijing Vital River Laboratory Animal Technology Co., Ltd. • Tumor grafting: 0.2 mL of Ba/F3-TEL-CSF1R cell suspension (2×10^6 cells) was grafted into each mouse through tail vein injection, and the mice were randomized by weight on day 10. • Grouping and dosing regimens
The animals were housed in SPF animal rooms in independent cages with air supply, and each cage contained no more than 5 animals. • ? Temperature: 20-26° C. • ? Humidity: 35%-75% • ? Illumination: 12 h/12 h light/darkness cycle • ? Corn core padding, changed once a week • ? […] Labeling: ear cutting. • Grouping: The subcutaneous tumor-bearing state was observed every day after grafting; the body weight and tumor volume were measured before grouping, and the mice were randomized according to the data. • Observation: The drafting and any modification of the protocol were approved by the Ethics
Committee of Laboratory Animal Welfare of Precision Preceding Do Co., Ltd. (Hefei, China). Animals were monitored daily for health and mortality, including, for example, tumor growth, mobility, diet, weight, eye, hair and other abnormal behaviors, appearance, signs or other abnormalities. The numbers of deaths and adverse events in the groups were recorded based on the number of animals. • Parameters: The body weights were measured and animal survival rate observed daily; at the end of the study (4 h after the last dose), the mice were euthanized and the spleen and liver were collected, weighed and photographed. • The results are shown in FIG. 1.

SMILES: CNC(=O)c1nccc2c(-c3cnc(Nc4ccc(OC5CC5)nc4)cc3C)cn(C)c12 [Compound 2 hydrochloride]
- IC50 (CSF-1R): 26.8 nM

SMILES: Cl.FC(F)(F)c1ccc(CNc2ccc(Cc3c[nH]c4ncc(Cl)cc34)cn2)cn1 [PLX-3397, Pexidartinib, reference compound]
- IC50 (CYP2C9): 3.81 µM
- IC50 (CYP3A4): > 35.6 µM
- IC50 (CYP2C19): 8.32 µM
- IC50 (CYP1A2): 24 µM
- IC50 (CYP2D6): 8.77 µM
- AUC(0-t) ([1]; 1 mg/kg, IV, 1 mpk): 29 µM·h
- Vd ([1]; 1 mg/kg, IV, 1 mpk): 0.265 L/kg
- clearance ([1]; 1 mg/kg, IV, 1 mpk): 0.927 mL/min/kg
- half-life ([1]; 1 mg/kg, IV, 1 mpk): 3.33 h
- AUC(0-t) ([1]; 10 mg/kg, PO, 10 mpk): 131 µM·h
- Cmax ([1]; 10 mg/kg, PO, 10 mpk): 17.2 µM
- Tmax ([1]; 10 mg/kg, PO, 10 mpk): 4 h
- bioavailability ([1]; 10 mg/kg, PO, 10 mpk): 74.1%
- AUC(0-t) ([2]; 1 mg/kg, IV, 1 mpk): 8.49 µM·h
- Vd ([2]; 1 mg/kg, IV, 1 mpk): 0.613 L/kg
- clearance ([2]; 1 mg/kg, IV, 1 mpk): 4.64 mL/min/kg
- half-life ([2]; 1 mg/kg, IV, 1 mpk): 1.27 h
- AUC(0-t) ([2]; 10 mg/kg, PO, 10 mpk): 70.2 µM·h
- Cmax ([2]; 10 mg/kg, PO, 10 mpk): 10.7 µM
- Tmax ([2]; 10 mg/kg, PO, 10 mpk): 1.5 h
- bioavailability ([2]; 10 mg/kg, PO, 10 mpk): 81%

SMILES: CNC(=O)c1nccc2c(-c3cnc(Nc4ccc(OC(C)C)cc4)cc3C)c[nH]c12 [Compound 3 hydrochloride]
- IC50 (CSF-1R): 34 nM

SMILES: CNC(=O)c1nccc2c(-c3cnc(Nc4ccc(C)nc4)cc3C)c[nH]c12 [Compound 6 hydrochloride]
- IC50 (CSF-1R): 30 nM

Further compounds by falling IC50 (CSF-1R), results first:

- IC50 (CSF-1R): 26 nM
SMILES: CNC(=O)c1nccc2c(-c3cnc(Nc4ccc(OC)nc4)cc3C)c[nH]c12 [Compound 7 hydrochloride]

- IC50 (CSF-1R): 10 nM
SMILES: CNC(=O)c1nccc2c(-c3cnc(Nc4ccc(OC)cc4)cc3C)c[nH]c12 [Compound 8 hydrochloride]

- IC50 (CYP2C9): 11.6 µM
- permeability compared with PLX-3397 (MDR1-MDCK): higher than that of PLX-3397
- IC50 (CSF-1R): 1.13 nM
- IC50 (CYP3A4): 28 µM
- IC50 (CYP2C19): 21 µM
- IC50 (CYP1A2): > 50 µM
- IC50 (CYP2D6): > 50 µM
- AUC(0-t) ([1]; 1 mg/kg, IV, 1 mpk): 168 µM·h
- Vd ([1]; 1 mg/kg, IV, 1 mpk): 0.15 L/kg
- clearance ([1]; 1 mg/kg, IV, 1 mpk): 0.2 mL/min/kg
- half-life ([1]; 1 mg/kg, IV, 1 mpk): 8.62 h
- AUC(0-t) ([1]; 10 mg/kg, PO, 10 mpk): 1650 µM·h
- Cmax ([1]; 10 mg/kg, PO, 10 mpk): 117 µM
- Tmax ([1]; 10 mg/kg, PO, 10 mpk): 3 h
- bioavailability ([1]; 10 mg/kg, PO, 10 mpk): 98%
- AUC(0-t) ([2]; 1 mg/kg, IV, 1 mpk): 66 µM·h
- Vd ([2]; 1 mg/kg, IV, 1 mpk): 0.2 L/kg
- clearance ([2]; 1 mg/kg, IV, 1 mpk): 0.61 mL/min/kg
- half-life ([2]; 1 mg/kg, IV, 1 mpk): 3.4 h
- AUC(0-t) ([2]; 3 mg/kg, PO, 3 mpk): 249 µM·h
- Cmax ([2]; 3 mg/kg, PO, 3 mpk): 27.4 µM
- Tmax ([2]; 3 mg/kg, PO, 3 mpk): 2 h
- bioavailability ([2]; 3 mg/kg, PO, 3 mpk): 129%
SMILES: CNC(=O)c1nccc2c(-c3cnc(Nc4ccc(OC5CC5)nc4)cc3C)c[nH]c12 [Compound 1 hydrochloride]
- efficacy in TEL-CSF1R-BaF3 cell splenomegaly assay ([3]; 1 mpk, comparable to PLX-3397 (10 mg/kg)): significant efficacy
- efficacy in TEL-CSF1R-BaF3 cell splenomegaly assay ([3]; 10 mpk): significant advantage
- dose-dependence in TEL-CSF1R-BaF3 cell splenomegaly assay ([3]; high, medium and low doses (10, 3, 1 mg/kg p.o. QD)): clear dose-dependence
